Test results taken from PubChem BioAssay AID248 (DTP/NCI, 2004).
Where “and” joins values, the source holds several entries; their conditions need not be identical. Equal entries are not always repeated. Inconclusive results and toxic doses are left out.

Test system: L1210 leukemia ip in BDF1 mice, survival T/C
Assay: NCI In Vivo Anticancer Drug Screen. Data for tumor model L1210 Leukemia (intraperitoneal) in B6D2F1 (BDF1) mice
Details: endpoint: mean survival time, higher = longer survival
Summary of the method: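 Mice bearing the transplanted tumor received compound or vehicle. Survival of the treated group was divided by that of the vehicle-treated control group to give the ratio.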

[1] = dose: 100.0 mg/kg/injection, schedule: Q04DX002 (ip), vehicle: Klucel (hydroxypropylcellulose) (HPC)
[2] = dose: 100.0 mg/kg/injection, schedule: Q01DX009 (ip), vehicle: Klucel (hydroxypropylcellulose) (HPC)
[3] = dose: 200.0 mg/kg/injection, schedule: Q01DX009 (ip), vehicle: Klucel (hydroxypropylcellulose) (HPC)

CC[n+]1cccc2cc(NC(=O)c3ccc(NC(=O)c4ccc(C(=O)Nc5ccc6c(ccc[n+]6CC)c5)cc4)cc3)ccc21
T/C (dose: 0.5 mg/kg/injection, schedule: Q01DX Z (ip), vehicle: carboxymethylcellulose (CMC)): 94 % of control | T/C (dose: 1.0 mg/kg/injection, schedule: Q01DX Z (ip), vehicle: carboxymethylcellulose (CMC)): 96 % of control | T/C (dose: 2.5 mg/kg/injection, schedule: Q01DX Z (ip), vehicle: carboxymethylcellulose (CMC)): 120 % of control | T/C (dose: 5.0 mg/kg/injection, schedule: Q01DX Z (ip), vehicle: carboxymethylcellulose (CMC)): 156 % of control | T/C (dose: 8.9 mg/kg/injection, schedule: Q01DX Z (ip), vehicle: carboxymethylcellulose (CMC)): 154 % of control | T/C (dose: 13.3 mg/kg/injection, schedule: Q01DX Z (ip), vehicle: carboxymethylcellulose (CMC)): 164 % of control | T/C (dose: 20.0 mg/kg/injection, schedule: Q01DX Z (ip), vehicle: carboxymethylcellulose (CMC)): 164 % of control | T/C (dose: 30.0 mg/kg/injection, schedule: Q01DX Z (ip), vehicle: carboxymethylcellulose (CMC)): 174 % of control

BrCCCCOCBr
T/C (dose: 50.0 mg/kg/injection, schedule: Q01DX009 (ip), vehicle: saline with Tween-80): 97 % of control | T/C (dose: 100.0 mg/kg/injection, schedule: Q01DX009 (ip), vehicle: saline with Tween-80): 101 % of control | T/C (dose: 200.0 mg/kg/injection, schedule: Q01DX009 (ip), vehicle: saline with Tween-80): 106 % of control

O=[N+]([O-])c1ccc2c(c1)OCO2
T/C [1]: 103 % of control | T/C (dose: 200.0 mg/kg/injection, schedule: Q04DX002 (ip), vehicle: Klucel (hydroxypropylcellulose) (HPC)): 88 % of control | T/C (dose: 400.0 mg/kg/injection, schedule: Q04DX002 (ip), vehicle: Klucel (hydroxypropylcellulose) (HPC)): 94 % of control

Cc1cc(Br)cnc1Cl
T/C (dose: 100.0 mg/kg/injection, schedule: Q04DX003 (ip), vehicle: saline with Tween-80): 96 % of control | T/C (dose: 200.0 mg/kg/injection, schedule: Q04DX003 (ip), vehicle: saline with Tween-80): 94 % of control | T/C (dose: 400.0 mg/kg/injection, schedule: Q04DX003 (ip), vehicle: saline with Tween-80): 96 % of control

CN(C)CCC(CNC1=NCCN1)c1cccc2ccccc12 (stereo not given)
T/C (dose: 25.0 mg/kg/injection, schedule: Q04DX002 (ip), vehicle: saline with Tween-80): 108 % of control | T/C (dose: 50.0 mg/kg/injection, schedule: Q04DX002 (ip), vehicle: saline with Tween-80): 101 % of control | T/C (dose: 100.0 mg/kg/injection, schedule: Q04DX002 (ip), vehicle: saline with Tween-80): 101 % of control

C=Cc1c[nH]c(=O)[nH]c1=O
T/C (dose: 25.0 mg/kg/injection, schedule: Q04DX002 (ip), vehicle: Klucel (hydroxypropylcellulose) (HPC)): 94 % of control | T/C (dose: 50.0 mg/kg/injection, schedule: Q04DX002 (ip), vehicle: Klucel (hydroxypropylcellulose) (HPC)): 94 % of control | T/C [1]: 102 % of control

CCCCCCCCO/N=C\c1c2c(O)c3c(O)c(C)c4c(c3c1O)C(=O)C(C)(O/C=C\C(OC)C(C)C(OC(C)=O)C(C)C(O)C(C)C(O)C(C)/C=C\C=C(\C)C(=O)N2)O4 (stereo not given)
T/C (dose: 50.0 mg/kg/injection, schedule: Q04DX003 (ip), vehicle: water): 96 % of control | T/C [2]: 106 % of control | T/C (dose: 100.0 mg/kg/injection, schedule: Q04DX003 (ip), vehicle: water): 100 % of control | T/C [3]: 89 % of control | T/C (dose: 200.0 mg/kg/injection, schedule: Q04DX003 (ip), vehicle: water): 98 % of control | T/C (dose: 400.0 mg/kg/injection, schedule: Q04DX003 (ip), vehicle: water): 104 % of control

C/C(=N\N=C(/C)c1ccc(Cl)cc1)c1ccc(Cl)cc1
T/C (dose: 100.0 mg/kg/injection, schedule: Q01DX001 (ip), vehicle: Klucel (hydroxypropylcellulose) (HPC)): 87 % of control | T/C [2]: 89 % of control and 95 % of control | T/C (dose: 100.0 mg/kg/injection, schedule: Q04DX003 (ip), vehicle: Klucel (hydroxypropylcellulose) (HPC)): 89 % of control and 96 % of control | T/C (dose: 200.0 mg/kg/injection, schedule: Q01DX001 (ip), vehicle: Klucel (hydroxypropylcellulose) (HPC)): 87 % of control | T/C [3]: 86 % of control and 95 % of control | T/C (dose: 200.0 mg/kg/injection, schedule: Q04DX003 (ip), vehicle: Klucel (hydroxypropylcellulose) (HPC)): 89 % of control and 102 % of control | T/C (dose: 400.0 mg/kg/injection, schedule: Q01DX001 (ip), vehicle: Klucel (hydroxypropylcellulose) (HPC)): 97 % of control | T/C (dose: 400.0 mg/kg/injection, schedule: Q01DX009 (ip), vehicle: Klucel (hydroxypropylcellulose) (HPC)): 94 % of control | T/C (dose: 400.0 mg/kg/injection, schedule: Q04DX003 (ip), vehicle: Klucel (hydroxypropylcellulose) (HPC)): 98 % of control and 93 % of control

COc1ccc(C(=C(CC(=O)O)C(=O)OC(C)(C)C)c2ccc(OC)c(OC)c2)cc1OC
T/C (dose: 100.0 mg/kg/injection, schedule: Q01DX001 (ip), vehicle: carboxymethylcellulose (CMC)): 96 % of control | T/C (dose: 100.0 mg/kg/injection, schedule: Q01DX009 (ip), vehicle: carboxymethylcellulose (CMC)): 91 % of control | T/C (dose: 200.0 mg/kg/injection, schedule: Q01DX001 (ip), vehicle: carboxymethylcellulose (CMC)): 97 % of control | T/C (dose: 200.0 mg/kg/injection, schedule: Q01DX009 (ip), vehicle: carboxymethylcellulose (CMC)): 95 % of control | T/C (dose: 400.0 mg/kg/injection, schedule: Q01DX001 (ip), vehicle: carboxymethylcellulose (CMC)): 94 % of control | T/C (dose: 400.0 mg/kg/injection, schedule: Q01DX009 (ip), vehicle: carboxymethylcellulose (CMC)): 91 % of control | T/C (dose: 600.0 mg/kg/injection, schedule: Q01DX009 (ip), vehicle: carboxymethylcellulose (CMC)): 91 % of control
